Here are results for one molecule from article PMC10951960, “CGP7930 - An allosteric modulator of GABABRs, GABAARs and inwardly-rectifying potassium channels” (Neuropharmacology, 2023).

Assay [1] concerns the target T1, neuronal GABABRs (Rattus norvegicus, UniProt O88871+Q9Z0U4).
T1 construct: endogenous in cells; host or cells: cultured rat (E18 Sprague-Dawley) hippocampal neurons, 12-17 DIV
Briefly: baclofen-activated GIRK currents in hippocampal cultures, high external K+, whole-cell voltage clamp. In kind it is cell-based. Particulars: read-out: EC50 for CGP7930 potentiation of baclofen response. Here is the method: (§1) Briefly, single cells derived from dissected hippocampi were seeded onto glass coverslips coated with poly-D-lysine in a plating medium containing minimum essential media with 5% v/v heat-inactivated FCS, 5% v/v heat-inactivated horse serum, penicillin-G/streptomycin (100 U/100 μg/ml), 2 mM L-glutamine, and 20 mM glucose. Two hr after plating the media was changed to a Neurobasal-A based maintenance media supplemented with 1% v/v B-27, penicillin-G/streptomycin (100 U/100 μg/ml), 0.5% v/v Glutamax and 35 mM glucose.
(§2) Spontaneous inhibitory postsynaptic currents (sIPSCs) were recorded from cultured hippocampal neurons at 12–17 days in vitro (DIV). […] GABABR-activated K^+ currents in cultured neurons were recorded in the additional presence of 2 mM kynurenic acid and 20 μM picrotoxin.
Borosilicate glass electrodes (3–5 MΩ) were filled with a K^+-based internal solution for recording GIRK currents containing (mM): 120 KCl, 2 MgCl2, 11 EGTA, 30 KOH, 10 HEPES, 1 CaCl2, 1 GTP, 2 ATP, 14 creatine phosphate, pH 7.0. GABAAR currents and sIPSCs were recorded with a Cs-based internal solution containing (mM): 120 CsCl, 1 MgCl2, 11 EGTA, 30 KOH, 10 HEPES, 1 CaCl2, and 2 K2ATP; pH 7.2. […] Cells were held at −60 mV (sIPSCs) or −60/−70 mV (K^+ currents). Voltage clamp recordings were undertaken after optimising series resistance (Rs, <10 MΩ) and compensating for the whole-cell membrane capacitance. […]

Assay [2] deals with T2, α1β2γ2L GABAAR (Mus musculus, UniProt P22723+P62812+P63137).
T2 construct: expressed in transfected cells; host or cells: HEK-293T
T2 sequence (P62812 28-455): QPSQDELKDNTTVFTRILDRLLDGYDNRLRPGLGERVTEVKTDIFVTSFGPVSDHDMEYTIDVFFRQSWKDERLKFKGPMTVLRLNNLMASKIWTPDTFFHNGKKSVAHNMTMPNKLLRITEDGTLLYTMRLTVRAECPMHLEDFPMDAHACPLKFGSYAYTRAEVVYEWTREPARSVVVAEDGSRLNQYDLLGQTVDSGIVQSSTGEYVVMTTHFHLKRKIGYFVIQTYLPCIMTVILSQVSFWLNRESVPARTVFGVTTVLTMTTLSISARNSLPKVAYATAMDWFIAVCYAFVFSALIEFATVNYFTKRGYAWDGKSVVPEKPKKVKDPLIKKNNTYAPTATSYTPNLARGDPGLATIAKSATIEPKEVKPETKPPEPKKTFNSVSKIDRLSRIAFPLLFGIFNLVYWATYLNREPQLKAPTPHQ
T2 sequence (P63137 25-512 limits assumed): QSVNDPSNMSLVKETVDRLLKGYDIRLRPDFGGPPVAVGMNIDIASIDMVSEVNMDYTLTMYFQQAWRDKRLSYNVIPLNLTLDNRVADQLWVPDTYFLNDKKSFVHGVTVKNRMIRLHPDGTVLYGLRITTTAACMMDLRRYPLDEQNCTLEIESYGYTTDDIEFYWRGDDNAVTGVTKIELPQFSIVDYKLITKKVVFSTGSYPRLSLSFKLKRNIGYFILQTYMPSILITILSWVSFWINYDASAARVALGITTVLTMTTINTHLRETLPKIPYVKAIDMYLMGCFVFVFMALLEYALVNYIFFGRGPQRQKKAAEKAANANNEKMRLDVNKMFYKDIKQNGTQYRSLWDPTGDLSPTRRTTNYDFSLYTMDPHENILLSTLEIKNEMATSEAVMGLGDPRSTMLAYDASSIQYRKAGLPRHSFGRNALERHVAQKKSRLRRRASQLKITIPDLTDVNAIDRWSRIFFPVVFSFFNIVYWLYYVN
T2 sequence (P22723 39-474): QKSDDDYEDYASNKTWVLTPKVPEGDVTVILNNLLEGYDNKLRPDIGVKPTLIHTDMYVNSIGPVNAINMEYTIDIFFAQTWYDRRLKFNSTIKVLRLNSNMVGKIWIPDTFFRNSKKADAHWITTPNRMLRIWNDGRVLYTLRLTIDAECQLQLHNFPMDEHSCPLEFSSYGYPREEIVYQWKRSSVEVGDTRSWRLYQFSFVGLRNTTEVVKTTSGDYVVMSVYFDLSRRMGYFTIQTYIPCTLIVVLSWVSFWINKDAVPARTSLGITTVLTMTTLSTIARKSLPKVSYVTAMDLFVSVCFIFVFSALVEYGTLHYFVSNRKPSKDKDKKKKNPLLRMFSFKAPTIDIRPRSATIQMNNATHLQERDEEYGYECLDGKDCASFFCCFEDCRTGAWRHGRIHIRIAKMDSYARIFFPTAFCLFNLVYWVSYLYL
Briefly: whole-cell currents of recombinant GABAA receptors in HEK-293 cells (α1β2γ2L). Format: cell-based, murine. As for the experimental part: (§3) CGP55845, and other drugs, were obtained from Merck (Sigma-Aldrich) unless otherwise stated.
(§4) All cell culture reagents were acquired from ThermoFisher unless otherwise stated. […] These cells are referred to as GIRK cells throughout the text and were transiently transfected with cDNAs for eGFP, GABAB R1a and R2 in a 1:1:5 ratio applied 1–2 h after cell plating.
(§5) Spontaneous inhibitory postsynaptic currents (sIPSCs) were recorded from cultured hippocampal neurons at 12–17 days in vitro (DIV). […] For recording K^+ currents in GIRK cells and neurons, the bath solution was switched to a high K^+ solution containing 25 mM KCl and reduced NaCl (120 mM), to shift the equilibrium potential for K^+ from approximately −90 to −47 mV, thus reversing the direction of K^+ current flux to net inward. GABABR-activated K^+ currents in cultured neurons were recorded in the additional presence of 2 mM kynurenic acid and 20 μM picrotoxin.
(§6) Borosilicate glass electrodes (3–5 MΩ) were filled with a K^+-based internal solution for recording GIRK currents containing (mM): 120 KCl, 2 MgCl2, 11 EGTA, 30 KOH, 10 HEPES, 1 CaCl2, 1 GTP, 2 ATP, 14 creatine phosphate, pH 7.0. GABAAR currents and sIPSCs were recorded with a Cs-based internal solution containing (mM): 120 CsCl, 1 MgCl2, 11 EGTA, 30 KOH, 10 HEPES, 1 CaCl2, and 2 K2ATP; pH 7.2. […] Cells were held at −60 mV (sIPSCs) or −60/−70 mV (K^+ currents). Voltage clamp recordings were undertaken after optimising series resistance (Rs, <10 MΩ) and compensating for the whole-cell membrane capacitance. Membrane currents were filtered at 5 kHz (−3 dB, 6th pole Bessel, 36 dB/octave) and stored for analysis with Clampex 10.
(§7) Concentration-response curves were generated by measuring the current (I) for each ligand concentration and normalising to the maximal current response (Imax).
(§8) We explored the ability of CGP7930 to modulate different recombinant GABAARs expressed in HEK-293 cells to avoid confounds arising from heterogeneous receptor subtypes in neurons.

In assay [3] the target is T3, GABAB receptors (R1a and R2) (Mus musculus, UniProt Q80T41+Q9WV18).
T3 construct: expressed in transfected cells; host or cells: HEK-293 cells stably expressing Kir3.1/3.2 (GIRK cells)
T3 sequence (Q9WV18 20-960): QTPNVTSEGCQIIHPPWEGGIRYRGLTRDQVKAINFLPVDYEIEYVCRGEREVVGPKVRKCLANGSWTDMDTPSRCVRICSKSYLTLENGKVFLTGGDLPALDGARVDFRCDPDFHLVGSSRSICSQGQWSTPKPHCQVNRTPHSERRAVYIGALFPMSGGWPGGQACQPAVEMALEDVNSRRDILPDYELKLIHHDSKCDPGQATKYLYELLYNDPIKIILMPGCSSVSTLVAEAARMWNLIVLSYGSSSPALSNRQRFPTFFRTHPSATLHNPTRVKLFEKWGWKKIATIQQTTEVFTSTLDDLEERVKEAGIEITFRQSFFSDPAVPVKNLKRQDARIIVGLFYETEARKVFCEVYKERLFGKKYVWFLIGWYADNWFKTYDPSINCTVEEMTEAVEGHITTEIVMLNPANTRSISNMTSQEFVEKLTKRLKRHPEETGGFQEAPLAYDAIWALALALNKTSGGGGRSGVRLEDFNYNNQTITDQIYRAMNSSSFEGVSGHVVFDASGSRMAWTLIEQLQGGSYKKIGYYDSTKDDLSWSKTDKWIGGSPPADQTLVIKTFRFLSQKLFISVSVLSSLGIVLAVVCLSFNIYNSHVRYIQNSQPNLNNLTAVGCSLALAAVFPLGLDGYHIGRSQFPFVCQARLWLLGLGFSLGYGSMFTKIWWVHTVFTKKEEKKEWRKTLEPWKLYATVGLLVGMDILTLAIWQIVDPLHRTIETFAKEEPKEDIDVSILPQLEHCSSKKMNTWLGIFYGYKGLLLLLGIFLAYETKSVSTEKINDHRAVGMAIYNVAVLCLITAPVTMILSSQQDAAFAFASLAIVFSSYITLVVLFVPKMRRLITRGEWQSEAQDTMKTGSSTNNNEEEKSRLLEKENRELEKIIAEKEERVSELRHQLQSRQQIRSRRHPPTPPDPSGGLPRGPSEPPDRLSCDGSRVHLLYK
T3 sequence (Q80T41 41-940): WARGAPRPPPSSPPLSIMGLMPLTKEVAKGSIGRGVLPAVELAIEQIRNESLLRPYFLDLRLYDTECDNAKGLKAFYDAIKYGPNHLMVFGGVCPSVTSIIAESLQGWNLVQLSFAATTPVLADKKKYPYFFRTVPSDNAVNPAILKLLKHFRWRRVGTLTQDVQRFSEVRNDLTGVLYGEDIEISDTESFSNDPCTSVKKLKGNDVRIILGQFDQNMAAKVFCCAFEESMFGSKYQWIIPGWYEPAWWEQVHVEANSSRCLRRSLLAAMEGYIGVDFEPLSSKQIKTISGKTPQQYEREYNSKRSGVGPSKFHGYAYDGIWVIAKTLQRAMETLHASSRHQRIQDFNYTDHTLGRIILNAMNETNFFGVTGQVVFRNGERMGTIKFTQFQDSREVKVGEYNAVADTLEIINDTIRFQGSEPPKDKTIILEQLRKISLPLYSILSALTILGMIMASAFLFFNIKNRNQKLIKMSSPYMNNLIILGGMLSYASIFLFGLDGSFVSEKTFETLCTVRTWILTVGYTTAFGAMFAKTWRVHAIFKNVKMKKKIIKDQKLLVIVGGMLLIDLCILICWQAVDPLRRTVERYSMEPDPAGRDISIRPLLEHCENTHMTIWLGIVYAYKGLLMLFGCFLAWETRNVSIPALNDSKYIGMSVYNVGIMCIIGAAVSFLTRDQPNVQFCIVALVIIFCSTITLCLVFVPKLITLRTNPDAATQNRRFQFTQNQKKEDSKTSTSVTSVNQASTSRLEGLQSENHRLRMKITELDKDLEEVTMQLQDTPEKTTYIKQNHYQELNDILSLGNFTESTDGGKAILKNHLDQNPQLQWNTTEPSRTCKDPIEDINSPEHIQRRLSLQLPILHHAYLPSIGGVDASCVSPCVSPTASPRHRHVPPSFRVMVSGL
Briefly: GABA-activated K+ currents in GIRK cells (HEK cells stably expressing Kir3.1/3.2, transfected with GABAB R1a and R2), whole-cell patch clamp. In kind it is cell-based, murine. As for the experimental part: as §3, §4, §2, §6, §7
These cells were bathed in high external K^+ concentration Krebs to reverse the direction of net K^+ current flow.
In general terms: Patch clamp records ionic current or voltage across a cell membrane.

Assay [4] concerns the target T4, α4β3δ GABAAR (Mus musculus, UniProt P22933+P63080+Q9D6F4).
T4 construct: expressed in transfected cells; host or cells: HEK-293T
The assay can be described thus: whole-cell currents of recombinant GABAA receptors in HEK-293 cells (α4β3δ). Format: cell-based, murine. As for the experimental part: as §3, §4, §5, §6, §7, §8

In assay [5] the test system is native GABAARs in hippocampal neurons. Briefly: muscimol-activated and CGP7930-activated GABAAR currents in hippocampal neurons, Cs+-based internal solution. Format: cell-based, rat. Here is the method: as §1, §5, §6, §7

SMILES strings stand for the structures. Where two headings read alike, the source gives them in different places.

For orientation: EC50 means the concentration giving half of the maximal effect. By IC50 is commonly meant the concentration at which inhibition is half-maximal.

T4 sequence (Q9D6F4 36-552): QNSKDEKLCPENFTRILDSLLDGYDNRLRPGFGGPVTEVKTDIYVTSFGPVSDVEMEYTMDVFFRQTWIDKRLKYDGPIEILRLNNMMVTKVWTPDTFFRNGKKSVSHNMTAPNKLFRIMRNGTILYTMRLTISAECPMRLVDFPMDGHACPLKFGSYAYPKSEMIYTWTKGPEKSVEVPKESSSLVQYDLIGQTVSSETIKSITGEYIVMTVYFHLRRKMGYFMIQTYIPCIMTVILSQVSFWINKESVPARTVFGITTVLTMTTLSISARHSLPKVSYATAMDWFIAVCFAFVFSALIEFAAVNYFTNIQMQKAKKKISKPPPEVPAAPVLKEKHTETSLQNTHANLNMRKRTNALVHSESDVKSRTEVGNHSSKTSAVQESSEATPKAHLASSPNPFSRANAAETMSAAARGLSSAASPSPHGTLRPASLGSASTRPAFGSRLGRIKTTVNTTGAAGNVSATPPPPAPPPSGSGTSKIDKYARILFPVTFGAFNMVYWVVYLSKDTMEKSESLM
T4 sequence (P63080 26-473): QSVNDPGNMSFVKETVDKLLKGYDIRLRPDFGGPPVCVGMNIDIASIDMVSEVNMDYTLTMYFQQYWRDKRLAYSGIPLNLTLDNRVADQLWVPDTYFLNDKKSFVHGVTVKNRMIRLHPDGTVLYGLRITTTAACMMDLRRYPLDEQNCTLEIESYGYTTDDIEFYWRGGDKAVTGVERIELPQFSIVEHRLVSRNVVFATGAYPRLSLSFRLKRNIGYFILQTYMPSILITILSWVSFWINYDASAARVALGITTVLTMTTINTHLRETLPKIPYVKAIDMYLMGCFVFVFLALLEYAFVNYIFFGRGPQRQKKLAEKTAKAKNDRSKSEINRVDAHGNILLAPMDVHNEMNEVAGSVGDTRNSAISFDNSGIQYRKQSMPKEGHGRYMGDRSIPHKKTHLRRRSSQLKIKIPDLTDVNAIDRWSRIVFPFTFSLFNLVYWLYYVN
T4 sequence (P22933 17-449 limits assumed): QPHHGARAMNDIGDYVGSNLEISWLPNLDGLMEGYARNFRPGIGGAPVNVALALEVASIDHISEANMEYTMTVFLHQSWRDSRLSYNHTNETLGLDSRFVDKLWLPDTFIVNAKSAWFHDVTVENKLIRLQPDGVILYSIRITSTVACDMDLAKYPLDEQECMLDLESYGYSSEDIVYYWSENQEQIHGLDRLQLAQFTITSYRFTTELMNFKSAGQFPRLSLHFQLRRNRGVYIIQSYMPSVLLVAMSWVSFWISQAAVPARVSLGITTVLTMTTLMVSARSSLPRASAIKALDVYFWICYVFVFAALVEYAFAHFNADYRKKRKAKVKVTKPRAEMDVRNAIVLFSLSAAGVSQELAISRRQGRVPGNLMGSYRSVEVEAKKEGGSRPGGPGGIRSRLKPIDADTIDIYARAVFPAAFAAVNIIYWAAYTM

On to `CC(C)(CO)Cc1cc(C(C)(C)C)c(O)c(C(C)(C)C)c1` [CGP7930, 3-(3′,5′-Di-tert-butyl-4′-hydroxy) phenyl-2,2-dimethylpropanol], for which the EC50 came out at 0.9 ± 0.6 µM in assay [1]; 1.7 ± 1.3 µM in assay [2] (EC50 of GABA EC20 modulation curve, α1β2γ2L, ∼EC20 GABA, direct effects subtracted, n = 5); 9.3 ± 0.7 µM in assay [2] (α1β2γ2L (αβγ), read-out: EC50 for direct activation by CGP7930 alone); 11.1 ± 7 µM in assay [3] (read-out: EC50 for CGP7930 modulating EC20 GABAB receptor activated currents); 1 ± 0.3 µM in assay [4] (EC50 of GABA EC20 modulation curve, α4β3δ, ∼EC20 GABA, n = 7); 13.1 ± 1.4 µM in assay [4] (α4β3δ (αβδ), read-out: EC50 for direct activation by CGP7930 alone). Further, the EC50 in assay [5] (hippocampal neurons, n = 8, read-out: EC50 for direct activation (CGP7930 alone)) stood at 5.2 ± 0.1 µM; in assay [5] (∼EC10-15 muscimol (0.5 μM), direct effect subtracted, n = 10, read-out: EC50 for CGP7930 potentiation of muscimol response) it was 2 ± 1.1 µM. Further, the concentration for half-maximal inhibition (IC50) in assay [2] was found to be 6.6 ± 2.3 µM; in assay [3] (read-out: IC50 for CGP7930 modulating EC20 GABAB receptor activated currents) it was 10.5 ± 2 µM; in assay [4], 19.6 ± 13.1 µM; in assay [5] (∼EC10-15 muscimol (0.5 μM), direct effect subtracted, n = 10, read-out: IC50 of bell-shaped muscimol potentiation curve), 7.9 ± 1.8 µM. Also, the “threshold for direct activation” value in assay [2] (α1β2γ2L, CGP7930 alone) lay in the range of 1 to 3 µM; in assay [4] (α4β3δ, CGP7930 alone) it was 1 to 3 µM. Moreover, the “concentration at which clear direct activation became evident” value in assay [2] (α1β2γ2L, pre-application) lay in the range of 3 to 10 µM. Moreover, the “threshold for potentiation of the GABA current” value in assay [2] (α1β2γ2L, pre-application) amounted to 1 µM. Also, the “direct receptor activation of GABABRs” value in assay [3] (GIRK cells, CGP7930 pre-applied alone) is “no indication of direct receptor activation”. Further, the “potentiation reached, of the maximum GABA current activation of GABABRs” value in assay [3] (GIRK cells, ∼EC20 GABA) is given as roughly 30%. Besides, the “concentration at which GABABR signalling is inhibited” value in assay [3] (highlights statement) is greater than 3 µM. Also, in assay [5] (hippocampal neurons, n = 8), the “maximal direct activation compared to maximal GABAAR activation by saturating muscimol” value worked out at 42.1 ± 1.8%.
